These results are taken from patent US11357779B2 (G1 Therapeutics, Inc., priority 2018, dated 2022).

A short description of series [1]: Pharmacokinetics of Compound I in healthy volunteers after a single dose of Form B of Compound II. Type of series: in vivo, human. The settings on record: for AUC(0-inf) / Cmax / Tmax / half-life / Vd/F: human, oral; for Vd/F: read-out: Vz/F. How it is done:
Table 84 provides the pharmacokinetic parameters of Compound I upon administration of a single dose of Form B of Compound II (48, 100, 200, 300, 400, or 600 mg) in healthy volunteers. Blood samples for analysis of Compound I were collected pre-dose and 0.25, 0.5, 1, 1.5, 2, 3, 4, 6, 8, 12, 24, 36, 48, 72, and 96 hours post-dose.

Series [2] is described as follows: Crystallization and slurry experiments, morphic forms of Compound II (XRPD, characterization). In kind it is physicochemical. The settings on record: for Time point (1 day) XRPD: Stirring at RT. How it is done: Eleven unique XRPD patterns (Form A-Form K) of Compound II were obtained from crystallization and slurry experiments using various solvents.
Forms A, B, and D were evaluated as solid state forms.

Series [3] is described as follows: Slurry conversion of impure Form B to pure Form B (small scale and scale-up, XRPD). In kind it is physicochemical. The procedure: Approximately 16 small scale slurry experiments were carried out by varying the slurry concentration, temperature, HCl acid molar concentration, and content in the aqueous acetone mixtures as well as the water content. Slurries of impure Form B were performed in a given solvent system at targeted calculated concentration at ambient or elevated temperatures for various time/durations. The solids were isolated by vacuum filtration and submitted for XRPD analysis. The specific experimental conditions are detailed in Table 109 where solvent system ratios are by volume.
The slurries in acidic aqueous acetone mixtures at an elevated temperature of 50° C. […] FIG. 19 compares XRPD patterns of Sample 3 and 5 to the starting material of the experiments, impure Form B and to pure Form B. For comparison purposes, the samples were also compared to a second impure sample of Form B, (Impure Form B Sample 2 in FIG. 19). This second impure Form B contained larger amounts of the unknown Form than the impure Form B previously described in Example 8.
Several slurry experiments were performed in water:acetone solvent systems starting with impure Form B and varying the water:acetone ratio, slurry concentration, and time. Based on the initial slurry results, experiments in 1:2 (v/v) water:acetone at ambient temperature were performed with aliquots taken after 16 hours (Sample 6) and 20.5 hours (Sample 7). The slurry in this solvent system was conducted at a concentration of 100-125 mg/mL and ambient temperature. The XRPD patterns of the resulting materials were consistent with pure Form B (FIG. 20).
In an effort to improve the yield, water:acetone 1:3 (v/v) was used at 150 mg/mL concentration (Samples 13 and 14) however, the conversion was not completed even after 4 days (FIG. 21). Therefore, one experiment was performed using water:acetone 1:2 (v/v) slurry for 18 hours and then adding acetone to reach ratio water:acetone 1:4 (v/v) followed by slurry for 4 hours (Sample 12). The XRPD pattern of the resulting material was consistent with Form B, however, one of the undesired peaks reappeared shifted from 3.95 °2θ to 4.2 °2θ (FIG. 21).
The Julabo FP50 temperature control unit contained Julabo Thermal C10 fluid and the reactor temperature was measured with a K-type PTFE temperature probe. The experiments were carried out with Lara Control software version 2.3.5.0. The software tracked circulator temperature, vessel temperature, and stir rate, recording readings every tenth of a second throughout the experiment.
The reactor vessel was charged with the solids of impure Form B (58.86 g) in 471 mL of a water:acetone 1:2 (v/v) solvent system achieving 125 mg/mL slurry concentration (Samples 20-23). The resulting slurry was stirred at 30° C. for up to 43 hours with stirring speed of 400 rpm. The slurry was cooled to 25° C. over 30 minutes, discharged from the reactor vessel, and immediately slowly filtered (drop by drop) to […]. A water:acetone 1:2 (v/v) wash solution was prepared in advance and used to wash the filter cake in one portion.
Pulls were taken usually at the 20th hour and if needed at later time points (Table 110).
The conversion of impure Form B to pure Form B was conducted in water:acetone 1:2 (v/v) slurry at 125 mg/mL concentration and 30° C. for 43 hours. Very slow filtration was observed and the wet cake was air-dried at ambient conditions for 3.5 hours followed by vacuum drying at ambient temperature and 15 in Hg for 0.5 hour and then at ˜27 in Hg for 3.5 hours yielding 49.26 g ([…]).

Series [4] in a line: Stability study under thermal stress, 60° C. for 7 days. Type of series: physicochemical. The procedure: Forms A, B, and D were stored in an oven maintained at 60° C. for 7 days.
The mark [5] stands for this setting: blood, single 100 mg dose of Form B of Compound II.
Where [6] appears, read: blood, single 200 mg dose of Form B of Compound II.
Setting [7] is: blood, single 300 mg dose of Form B of Compound II.
Setting [8] is: plasma, single 48 mg dose of Form B of Compound II.
Where [9] appears, read: plasma, single 400 mg dose of Form B of Compound II.
Setting [10] is: plasma, single 600 mg dose of Form B of Compound II.

“Also recorded” adds a separate entry of the source. Where two headings read alike, the source gives them in different places.

The AUC(0-inf) is the area under the concentration-time curve extrapolated to infinity. A high value points to more exposure. Usually Cmax stands for the peak of the concentration-time curve. Usually Tmax stands for the time at which the peak concentration occurs. Broadly, the half-life is how long it takes for the measured level to halve. By CL/F is commonly meant the apparent clearance, not corrected for the fraction that reaches the circulation. Take `CC(C)N1CCN(c2ccc(Nc3ncc4cc5n(c4n3)C3(CCCCC3)CNC5=O)nc2)CC1` [Compound I, 2′-((5-(4-isopropylpiperazin-1-yl)pyridin-2-yl)amino)-7′,8′-dihydro-6′H-spiro[cyclohexane-1,9′-pyrazino[1′,2′:1,5]pyrrolo[2,3-d]pyrimidin]-6′-one]: the area under the curve AUC(0-inf) in series [1] (setting [5]) turned out to be 60.2 ng·h/mL; in series [1] (setting [6]), 275 ng·h/mL; in series [1] (setting [7]), 349 ng·h/mL; in series [1] (setting [8]) it was 20.4 ng·h/mL; in series [1] (setting [9]), 432 ng·h/mL; in series [1] (setting [10]) it was 886 ng·h/mL. Also, the Cmax is 9.23 ng/mL in series [1] (setting [5]); 29.3 ng/mL in series [1] (setting [6]); 27 ng/mL in series [1] (setting [7]); 3.65 ng/mL in series [1] (setting [8]); 26.3 ng/mL in series [1] (setting [9]); 59 ng/mL in series [1] (setting [10]). The Tmax amounted to 2 h in series [1] (setting [5]); 3 h in series [1] (setting [6]); 3.5 h in series [1] (setting [7]); 5 h in series [1] (blood, single 400 mg dose of Form B of Compound II); 2 h in series [1] (setting [8]); 6 h in series [1] (setting [10]). Moreover, the half-life in series [1] (setting [5]) is 4.71 h; in series [1] (setting [6]), 13.8 h; in series [1] (setting [7]), 15.4 h; in series [1] (setting [8]), 3.07 h; in series [1] (setting [9]) it was 14.9 h; in series [1] (setting [10]), 17.2 h. The Vd/F in series [1] (setting [5]) was 11300 L; in series [1] (setting [6]) it was 14500 L; in series [1] (setting [7]), 19100 L; in series [1] (setting [8]), 10400 L; in series [1] (setting [9]) it was 19900 L; in series [1] (setting [10]), 16800 L. Moreover, the CL/F in series [1] (single 48 mg dose of Form B of Compound II) is reported as 2354 L/h; in series [1] (single 100 mg dose of Form B of Compound II) it was 1660 L/h; in series [1] (single 200 mg dose of Form B of Compound II), 727 L/h; in series [1] (single 300 mg dose of Form B of Compound II) it was 861 L/h; in series [1] (single 400 mg dose of Form B of Compound II) it was 926 L/h; in series [1] (single 600 mg dose of Form B of Compound II), 677 L/h.
Turning to `CC(C)N1CCN(c2ccc(Nc3ncc4cc5n(c4n3)C3(CCCCC3)CNC5=O)nc2)CC1` [Compound II, 2′-((5-(4-isopropylpiperazin-1-yl)pyridin-2-yl)amino)-7′,8′-dihydro-6′H-spiro[cyclohexane-1,9′-pyrazino[1′,2′:1,5]pyrrolo[2,3-d]pyrimidin]-6′-one], the XRPD result was “Weak crystalline” in series [2] (MeOH/0.5 mL, 60.0° C., Fast Cooling (4° C.), anti solvent EtOAc/0.2 mL, ppt/filter); “Weak crystalline” in series [2] (MeOH/0.5 mL, 60.0° C., Fast Cooling (4° C.), anti solvent n-BuOH/5.0 mL, ppt/filter); “Weak crystalline” in series [2] (MeOH/0.5 mL, 60.0° C., Fast Cooling (4° C.), anti solvent n-PrOH/5.0 mL, ppt/filter); “Weak crystalline” in series [2] (MeOH/0.5 mL, 60.0° C., Slow Cooling (20° C./hr), anti solvent Acetone/0.5 mL, ppt/filter); “Weak crystalline” in series [2] (MeOH/0.5 mL, 60.0° C., Slow Cooling (20° C./hr), anti solvent EtOH/5.0 mL, ppt/filter); “Weak crystalline” in series [2] (MeOH/0.5 mL, 60.0° C., Slow Cooling (20° C./hr), anti solvent MIBK/0.1 mL, ppt/filter (first listing)). For the same compound, the XRPD entry in series [2] (MeOH/0.5 mL, 60.0° C., Slow Cooling (20° C./hr), anti solvent MeCN/2.5 mL, ppt/filter) is “Weak crystalline”; in series [2] (MeOH/0.5 mL, 60.0° C., Slow Cooling (20° C./hr), anti solvent THF/0.5 mL, ppt/filter), “Weak crystalline”; in series [2] (MeOH/0.5 mL, 60.0° C., Slow Cooling (20° C./hr), anti solvent Toluene/1.5 mL, ppt/filter (second listing)), “Weak crystalline”; in series [2] (MeOH/0.5 mL, 60.0° C., Slow Cooling (20° C./hr), anti solvent n-BuOH/5.0 mL, ppt/filter), “Weak crystalline”; in series [2] (MeOH/0.5 mL, 60.0° C., Slow Cooling (20° C./hr), anti solvent n-PrOH/5.0 mL, ppt/filter), “Weak crystalline”; in series [2] (Water/0.5 mL, 60.0° C., Fast Cooling (4° C.), anti solvent EtOH/5.0 mL, Clear/Evap.) it was “Weak crystalline”. In addition, the XRPD entry in series [2] (Water/0.5 mL, 60.0° C., Fast Cooling (4° C.), anti solvent MeCN/5.0 mL, ppt/filter) is recorded as “Weak crystalline”; in series [2] (Water/0.5 mL, 60.0° C., Fast Cooling (4° C.), anti solvent THF/3.0 mL, ppt/filter), “Weak crystalline”; in series [2] (Water/0.5 mL, 60.0° C., Fast Cooling (4° C.), anti solvent n-PrOH/5.0 mL, Clear/Evap.) it was “Weak crystalline”; in series [2] (Water/0.5 mL, 60.0° C., Slow Cooling (20° C./hr), anti solvent EtOH/5.0 mL, Clear/Evap.), “Weak crystalline”; in series [2] (single solvent crystallization: 1-BuOH 4.0 mL, 60° C., Fast Cooling (4° C.), ppt/filter), “Weak”; in series [2] (single solvent crystallization: 1-PrOH 4.0 mL, 60° C., Fast Cooling (4° C.), ppt/filter), “Weak”. For the same compound, the XRPD entry is given as “Weak” in series [2] (single solvent crystallization: 1-PrOH 4.0 mL, 60° C., Slow (20° C./hr), ppt/filter); “Weak” in series [2] (single solvent crystallization: MeOH 0.5 mL, 60° C., Fast Cooling (4° C.), ppt/filter); “Weak” in series [2] (single solvent crystallization: Water 2.0 mL, 60° C., Fast Cooling (4° C.), Turbid/Evap.); “Weak” in series [2] (single solvent crystallization: Water 2.0 mL, 60° C., Slow (20° C./hr), Turbid/Evap.). Further, the “Time point (1 day) XRPD” value was “Weak” in series [2] (slurry in 2-MeTHF 1.0 mL), “A with extra” in series [2] (slurry in IPAc 1.0 mL), “Weak” in series [2] (slurry in MEK 1.0 mL) and “Weak” in series [2] (slurry in THF 1.0 mL). Besides, the “XRPD Result” value in series [3] (125 mg/mL Slurry, 30° C., 20 h) is reported as “Form B + small broad”; in series [3] (125 mg/mL Slurry, 30° C., 24 h), “B + broad peaks at 4.2°”; in series [3] (125 mg/mL Slurry, 30° C., 42 h) it was “Form B”; in series [3] (125 mg/mL Slurry, 30° C., 43 h VF, washed with 50 mL of H2O:acetone 1:2, Air-dried for 3.5 h), “Form B”; in series [3] (Vacuum drying, 22° C., 0.5 h, 15 in Hg, 22° C. 1.5 h, 27-28 in Hg), “Form B”; in series [3] (Vacuum drying, 22° C., 2.0 h, 27 in Hg), “Form B”.
`CC(C)N1CCN(c2ccc(Nc3ncc4cc5n(c4n3)C3(CCCCC3)CNC5=O)nc2)CC1` [Form B]: in series [4], the “XRPD pattern after thermal stress” value was “stable; also recorded: No change in the XRPD pattern; also recorded: remained unchanged”.
